Data from PubChem BioAssay AID1259411 (Chemical Carcinogenesis Research Information System (CCRIS), 2018).
Active and inactive are the calls of the source. How the calls were made is not given here.

Test system: rodent carcinogenicity bioassays, tumor incidence
Assay: CCRIS carcinogenicity studies
Method in brief: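 NCI-built, expert-reviewed records of carcinogenicity and related test outcomes (mutagenicity, tumor promotion/inhibition) compiled from published and report sources, historical span 1985-2011, not updated.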

## C=C(C)CCl
Species: MOUSE, Strain/Sex: B6C3F1/FEMALE, Route: GAVAGE, Dose: 0, 100, 200 MG/KG IN CORN OIL 5 D/WK FOR 103 WK (STUDY DURATION: 2 YR), Dose: 0, 100, 200 MG/KG IN CORN OIL 5 D/WK FOR 103 WK (STUDY DURATION: 2 YR), Tumor Site: Type of Lesion: FORESTOMACH: EPITHELIAL HYPERPLASIA, SQUAMOUS CELL PAPILLOMA
  carcinogen call: active; positive
Species: MOUSE, Strain/Sex: B6C3F1/FEMALE, Route: GAVAGE, Dose: 0, 100, 200 MG/KG IN CORN OIL 5 D/WK FOR 103 WK, Dose: 0, 100, 200 MG/KG IN CORN OIL 5 D/WK FOR 103 WK, Tumor Site: Type of Lesion: FORESTOMACH: SQUAMOUS CELL PAPILLOMA, SQUAMOUS CELL PAPILLOMA OR CARCINOMA
  carcinogen call: active; positive
Species: MOUSE, Strain/Sex: B6C3F1/MALE, Route: GAVAGE, Dose: 0, 100, 200 MG/KG IN CORN OIL 5 D/WK FOR 103 WK (STUDY DURATION: 2 YR), Dose: 0, 100, 200 MG/KG IN CORN OIL 5 D/WK FOR 103 WK (STUDY DURATION: 2 YR), Tumor Site: Type of Lesion: FORESTOMACH: EPITHELIAL HYPERPLASIA, SQUAMOUS CELL PAPILLOMA, SQUAMOUS CELL CARCINOMA
  carcinogen call: active; positive
Species: MOUSE, Strain/Sex: B6C3F1/MALE, Route: GAVAGE, Dose: 0, 100, 200 MG/KG IN CORN OIL 5 D/WK FOR 103 WK, Dose: 0, 100, 200 MG/KG IN CORN OIL 5 D/WK FOR 103 WK, Tumor Site: Type of Lesion: FORESTOMACH: SQUAMOUS CELL PAPILLOMA, SQUAMOUS CELL CARCINOMA
  carcinogen call: active; positive
Species: MOUSE, Strain/Sex: BDF1/FEMALE, Route: INHALATION, Dose: 0, 50, 100, 200 PPM 6 HR/D 5 D/WK FOR 104 WK (STUDY DURATION: 104 WK), Dose: 0, 50, 100, 200 PPM 6 HR/D 5 D/WK FOR 104 WK (STUDY DURATION: 104 WK), Tumor Site: Type of Lesion: HARDERIAN GLAND: ADENOMA
  carcinogen call: active; positive
Species: MOUSE, Strain/Sex: BDF1/MALE, Route: INHALATION, Dose: 0, 50, 100, 200 PPM 6 HR/D 5 D/WK FOR 104 WK (STUDY DURATION: 104 WK), Dose: 0, 50, 100, 200 PPM 6 HR/D 5 D/WK FOR 104 WK (STUDY DURATION: 104 WK)
  carcinogen call: inactive; negative
Species: RAT, Strain/Sex: F344/FEMALE, Route: GAVAGE, Dose: 0, 75, 150 MG/KG IN CORN OIL 5 D/WK FOR 103 WK (STUDY DURATION: 2 YR), Dose: 0, 75, 150 MG/KG IN CORN OIL 5 D/WK FOR 103 WK (STUDY DURATION: 2 YR), Tumor Site: Type of Lesion: FORESTOMACH: BASAL CELL HYPERPLASIA, SQUAMOUS CELL PAPILLOMA
  carcinogen call: active; positive
Species: RAT, Strain/Sex: F344/FEMALE, Route: GAVAGE, Dose: 0, 75, 150 MG/KG IN CORN OIL 5 D/WK FOR 103 WK, Dose: 0, 75, 150 MG/KG IN CORN OIL 5 D/WK FOR 103 WK, Tumor Site: Type of Lesion: FORESTOMACH: PAPILLOMA
  carcinogen call: active; positive
Species: RAT, Strain/Sex: F344/MALE, Route: GAVAGE, Dose: 0, 75, 150 MG/KG IN CORN OIL 5 D/WK FOR 103 WK (STUDY DURATION: 2 YR), Dose: 0, 75, 150 MG/KG IN CORN OIL 5 D/WK FOR 103 WK (STUDY DURATION: 2 YR), Tumor Site: Type of Lesion: FORESTOMACH: BASAL CELL OR EPITHELIAL HYPERPLASIA, SQUAMOUS CELL PAPILLOMA
  carcinogen call: active; positive
Species: RAT, Strain/Sex: F344/MALE, Route: GAVAGE, Dose: 0, 75, 150 MG/KG IN CORN OIL 5 D/WK FOR 103 WK, Dose: 0, 75, 150 MG/KG IN CORN OIL 5 D/WK FOR 103 WK, Tumor Site: Type of Lesion: FORESTOMACH: PAPILLOMA
  carcinogen call: active; positive

## CC(=O)Nc1ccc(N=Nc2cc(C)ccc2O)cc1
Species: MOUSE, Strain/Sex: B6C3F1/FEMALE, Route: ORAL, Dose: 0, 2500, 5000 PPM IN DIET, Dose: 0, 2500, 5000 PPM IN DIET, Tumor Site: Type of Lesion: LIVER: HEPATOCELLULAR ADENOMA
  carcinogen call: active; positive
Species: MOUSE, Strain/Sex: B6C3F1/MALE, Route: ORAL, Dose: 0, 2500, 5000 PPM IN DIET, Dose: 0, 2500, 5000 PPM IN DIET
  carcinogen call: inactive; negative
Species: RAT, Strain/Sex: F344/FEMALE, Route: ORAL, Dose: 0, 5000, 10000 PPM IN DIET, Dose: 0, 5000, 10000 PPM IN DIET
  carcinogen call: inactive; negative
Species: RAT, Strain/Sex: F344/MALE, Route: ORAL, Dose: 0, 5000, 10000 PPM IN DIET, Dose: 0, 5000, 10000 PPM IN DIET, Tumor Site: Type of Lesion: LIVER: NEOPLASTIC NODULE
  carcinogen call: active; positive

## C/C=C1/C[C@@H](C)[C@@](C)(O)C(=O)OC/C2=C/CN(C)CC[C@@H](OC1=O)C2=O
Species: RAT, Strain/Sex: ACI/MALE, Route: INTRAPERITONEAL, Dose: 22 MG/KG IN SALINE 2/WK FOR 4 WK, THEN 1/WK FOR 52 WK, Tumor Site: Type of Lesion: LIVER: ADENOMA
  carcinogen call: active; positive

## CC(CN1c2ccccc2Sc2ccccc21)N(C)C (stereo unspecified)
Species: MOUSE, Strain/Sex: B6C3F1/FEMALE, Route: GAVAGE, Dose: 0, 3.75, 7.5, 15 MG/KG IN WATER 1/D 5 D/WK FOR 103 WK (STUDY DURATION: 106 WK), Dose: 0, 3.75, 7.5, 15 MG/KG IN WATER 1/D 5 D/WK FOR 103 WK (STUDY DURATION: 106 WK)
  carcinogen call: inactive; negative
Species: MOUSE, Strain/Sex: B6C3F1/MALE, Route: GAVAGE, Dose: 0, 11.25, 22.5, 45 MG/KG IN WATER 1/D 5 D/WK FOR 103 WK (STUDY DURATION: 106 WK), Dose: 0, 11.25, 22.5, 45 MG/KG IN WATER 1/D 5 D/WK FOR 103 WK (STUDY DURATION: 106 WK)
  carcinogen call: inactive; negative
Species: RAT, Strain/Sex: F344/FEMALE, Route: GAVAGE, Dose: 0, 8.3, 16.6, 33.3 MG/KG IN WATER 1/D 5 D/WK FOR 103 WK (STUDY DURATION: 106 WK), Dose: 0, 8.3, 16.6, 33.3 MG/KG IN WATER 1/D 5 D/WK FOR 103 WK (STUDY DURATION: 106 WK)
  carcinogen call: inactive; negative
Species: RAT, Strain/Sex: F344/MALE, Route: GAVAGE, Dose: 0, 8.3, 16.6, 33.3 MG/KG IN WATER 1/D 5 D/WK FOR 103 WK (STUDY DURATION: 106 WK), Dose: 0, 8.3, 16.6, 33.3 MG/KG IN WATER 1/D 5 D/WK FOR 103 WK (STUDY DURATION: 106 WK)
  carcinogen call: inactive; negative

## c1ccc(N=Nc2ccccc2)cc1
Species: MOUSE, Strain/Sex: B6C3F1/FEMALE, Route: ORAL, Dose: 0, 208, 545 PPM IN DIET, TWA, Dose: 0, 208, 545 PPM IN DIET, TWA
  carcinogen call: inactive; negative
Species: MOUSE, Strain/Sex: B6C3F1/MALE, Route: ORAL, Dose: 0, 200, 400 PPM IN DIET, Dose: 0, 200, 400 PPM IN DIET
  carcinogen call: inactive; negative
Species: RAT, Strain/Sex: F344/FEMALE, Route: ORAL, Dose: 0, 200, 400 PPM IN DIET FOR 106 WK (STUDY DURATION: 106 WK), Dose: 0, 200, 400 PPM IN DIET FOR 106 WK (STUDY DURATION: 106 WK), Tumor Site: Type of Lesion: SPLEEN OR PERITONEUM: SARCOMA
  carcinogen call: active; positive
Species: RAT, Strain/Sex: F344/FEMALE, Route: ORAL, Dose: 0, 200, 400 PPM IN DIET, Dose: 0, 200, 400 PPM IN DIET, Tumor Site: Type of Lesion: SPLEEN: FIBROSARCOMA, OSTEOSARCOMA, PERITONEAL CAVITY: SARCOMA
  carcinogen call: active; positive
Species: RAT, Strain/Sex: F344/MALE, Route: ORAL, Dose: 0, 200, 400 PPM IN DIET FOR 106 WK (STUDY DURATION: 106 WK), Dose: 0, 200, 400 PPM IN DIET FOR 106 WK (STUDY DURATION: 106 WK), Tumor Site: Type of Lesion: SPLEEN OR PERITONEUM: SARCOMA
  carcinogen call: active; positive
Species: RAT, Strain/Sex: F344/MALE, Route: ORAL, Dose: 0, 200, 400 PPM IN DIET, Dose: 0, 200, 400 PPM IN DIET, Tumor Site: Type of Lesion: SPLEEN: FIBROSARCOMA, PERITONEAL CAVITY: SARCOMA
  carcinogen call: active; positive

## CO[Si](CCCOCC1CO1)(OC)OC (stereo unspecified)
Species: MOUSE, Strain/Sex: C3H/MALE, Route: DERMAL, Dose: 0, 5 MG IN ACETONE 3/WK FOR DURATION OF STUDY (STUDY DURATION: LIFETIME)
  carcinogen call: inactive; negative
